Measurements: patent US11028088B2, “Modulators of BTK proteolysis and methods of use” (Yale University, priority 2018, dated 2021)
Where two headings read alike, the source gives them in different places.

What was measured:
BTK = BTK (Homo sapiens, UniProt Q06187); assay: BTK degradation in NAMALWA cells (immunoblot); assay type: cell-based; parameters: host or cells: NAMALWA; settings: NAMALWA cells; for DC50: concentration needed to degrade 50% of the total pool of BTK; for Max: maximal BTK degradation
Experimental: NAMALWA and Jurkat cell lines were purchased from ATCC and cultured according to supplier guidelines at 37° C. […] Wild-type and C481S BTK XLA cell lines were cultured as previously described (39). Written, informed consent was obtained prior to the collection of cells from CLL patients using the IWCLL2008 criteria. Isolation of mononuclear cells from peripheral blood was prepared using density gradient centrifugation. B-cells were then negatively selected ([…] Technologies). […] They were maintained at 37° C. in 5% CO2.
Lysates were spun at 15,000×g for 10 min at 4° C. and supernatant was quantified for total protein content using the Pierce BCA Protein Assay (Thermo Fisher Scientific).
Either anti-rabbit or anti-mouse HRP-conjugated secondary antibodies (Pierce) were incubated with the membranes for 1 h at room temperature at 1:10,000 dilutions in 5% non-fat milk in IX TBS-T. Imaging was performed using the ECL Prime chemiluminescent western blot detection reagents (Amersham) followed by visualization with the Bio-Rad ChemiDoc imaging instrument. All western blots were subsequently processed and quantified using the accompanying Bio-Rad Image Lab software. […] All antibodies were used at 1:1,000 dilutions in 5% non-fat milk in 1×TBS-Tween (TBS-T) or Blotto blocker (Thermo Scientific) unless otherwise noted in supplier specifications.

HER3 = molecular target: T1, HER3 (Homo sapiens, UniProt P21860); assay: HER3/ERBB3 degradation (western blot, OVCAR8 cells); assay type: cell-based
T1 construct: endogenous in cells; host or cells: OVCAR8
Experimental: FIG. 10 illustrates a Western blot of Compound 102-related degradation of ERBB3.
In various embodiments, treatment with PROTAC was performed in one of two ways: 1) For experiments involving >16 h exposure to compound, a 1000× stock was added to cells followed by gentle agitation; 2) For shorter treatments, a 2× stock was added to an equal volume of cells to ensure uniform drug exposure. For immortalized cell lines, 2×10^6 cells per treatment condition were collected and washed once with ice cold PBS (IX), followed by lysis in buffer containing 20 mM Tris [pH 8.0], 0.25% sodium deoxycholate, 1% Triton X-100, supplemented with protease (Roche) and phosphatase inhibitors (10 mM NaF, 2 mM Na3VO4, 10 mM β-glycerophosphate, 10 mM Na-pyrophosphate). Lysates were spun at 15,000×g for 10 min at 4° C. and supernatant was quantified for total protein content using the Pierce BCA Protein Assay (Thermo Fisher Scientific). 30 μg of protein was loaded onto 12% SDS-PAGE gels or 4-15% Mini-PROTEAN TGX precast gradient gels (Bio-Rad), transferred onto nitrocellulose membranes, and probed with the specified primary antibodies overnight with rocking at 4° C. in 1×TBS-T containing 5% non-fat milk.
Either anti-rabbit or anti-mouse HRP-conjugated secondary antibodies (Pierce) were incubated with the membranes for 1 h at room temperature at 1:10,000 dilutions in 5% non-fat milk in IX TBS-T. Imaging was performed using the ECL Prime chemiluminescent western blot detection reagents (Amersham) followed by visualization with the Bio-Rad ChemiDoc imaging instrument. All western blots were subsequently processed and quantified using the accompanying Bio-Rad Image Lab software. Primary antibodies used were: Anti-actin antibody (Cat. #MA 1-744) purchased from ThermoFisher Scientific; anti-BTK (Cat. #8547), anti-pBTK (Y223, Cat. #5082), anti-ITK (Cat. #2380), anti-GAPDH (Cat. #5179), anti-IKZF1 (Cat. #9034), and anti-IKZF3 (Cat. #15103) antibodies purchased from Cell Signaling Technology. All antibodies were used at 1:1,000 dilutions in 5% non-fat milk in 1×TBS-Tween (TBS-T) or Blotto blocker (Thermo Scientific) unless otherwise noted in supplier specifications.

BTK, sequence (Q06187 whole entry): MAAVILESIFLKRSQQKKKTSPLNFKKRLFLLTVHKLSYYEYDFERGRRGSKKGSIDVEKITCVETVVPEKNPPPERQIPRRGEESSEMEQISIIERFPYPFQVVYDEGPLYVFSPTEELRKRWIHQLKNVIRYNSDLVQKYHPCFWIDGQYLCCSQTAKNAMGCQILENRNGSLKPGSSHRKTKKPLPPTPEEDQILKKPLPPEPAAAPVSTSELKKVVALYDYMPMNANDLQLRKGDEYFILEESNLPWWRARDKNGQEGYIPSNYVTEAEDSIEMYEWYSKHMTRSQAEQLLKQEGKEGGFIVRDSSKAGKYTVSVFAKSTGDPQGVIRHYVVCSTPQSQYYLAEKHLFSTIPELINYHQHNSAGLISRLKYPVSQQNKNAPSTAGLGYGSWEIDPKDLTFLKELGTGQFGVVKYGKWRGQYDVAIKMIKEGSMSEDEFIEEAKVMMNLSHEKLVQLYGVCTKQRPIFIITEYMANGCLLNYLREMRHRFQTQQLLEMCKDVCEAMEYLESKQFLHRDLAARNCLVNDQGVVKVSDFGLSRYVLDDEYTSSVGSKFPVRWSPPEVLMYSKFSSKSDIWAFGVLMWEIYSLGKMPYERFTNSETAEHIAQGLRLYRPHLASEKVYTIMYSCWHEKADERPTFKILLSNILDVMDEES
T1 sequence (P21860 20-1342): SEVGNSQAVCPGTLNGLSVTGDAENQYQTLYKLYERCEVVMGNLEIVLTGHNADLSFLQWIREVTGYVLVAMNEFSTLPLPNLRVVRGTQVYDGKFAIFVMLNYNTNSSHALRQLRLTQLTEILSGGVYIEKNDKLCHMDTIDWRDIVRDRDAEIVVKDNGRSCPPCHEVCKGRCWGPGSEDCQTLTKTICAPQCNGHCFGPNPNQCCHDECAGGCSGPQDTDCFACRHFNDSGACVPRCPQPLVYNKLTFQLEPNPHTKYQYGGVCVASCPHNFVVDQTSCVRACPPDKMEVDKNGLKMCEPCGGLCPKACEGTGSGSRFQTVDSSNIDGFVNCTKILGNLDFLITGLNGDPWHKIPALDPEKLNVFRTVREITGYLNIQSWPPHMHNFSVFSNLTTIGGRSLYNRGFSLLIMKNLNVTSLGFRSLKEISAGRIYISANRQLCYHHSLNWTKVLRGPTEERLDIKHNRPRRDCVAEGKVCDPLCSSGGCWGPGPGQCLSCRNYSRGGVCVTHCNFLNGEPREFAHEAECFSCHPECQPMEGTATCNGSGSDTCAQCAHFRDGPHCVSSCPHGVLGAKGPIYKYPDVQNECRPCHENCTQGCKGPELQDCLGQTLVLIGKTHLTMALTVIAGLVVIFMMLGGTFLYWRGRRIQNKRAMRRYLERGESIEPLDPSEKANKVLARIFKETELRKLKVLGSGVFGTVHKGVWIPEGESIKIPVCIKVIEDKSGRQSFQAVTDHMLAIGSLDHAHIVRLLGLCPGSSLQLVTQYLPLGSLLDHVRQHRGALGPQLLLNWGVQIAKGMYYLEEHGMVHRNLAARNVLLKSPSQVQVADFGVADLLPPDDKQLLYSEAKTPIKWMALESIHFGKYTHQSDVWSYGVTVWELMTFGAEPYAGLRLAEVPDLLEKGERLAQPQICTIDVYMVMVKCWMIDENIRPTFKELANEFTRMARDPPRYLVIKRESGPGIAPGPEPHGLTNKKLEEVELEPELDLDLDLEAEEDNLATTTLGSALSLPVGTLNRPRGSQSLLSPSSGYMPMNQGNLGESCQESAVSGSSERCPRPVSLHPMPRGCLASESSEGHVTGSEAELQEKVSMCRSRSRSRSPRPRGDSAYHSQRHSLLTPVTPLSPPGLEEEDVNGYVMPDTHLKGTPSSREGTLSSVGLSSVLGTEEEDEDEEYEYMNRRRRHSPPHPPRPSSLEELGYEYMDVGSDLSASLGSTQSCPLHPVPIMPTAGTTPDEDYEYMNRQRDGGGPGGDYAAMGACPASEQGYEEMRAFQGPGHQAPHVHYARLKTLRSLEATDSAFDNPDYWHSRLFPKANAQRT

Row | Compound | DC50 (BTK; read-out: DC50) [nM] | Max (BTK; at 1.0 μM) [%] | HER3 Degradation (HER3) | Max (BTK; at 2.5 μM) [%] | DC50 (BTK) | degradation of BTK at 1.0 μM (BTK; 1.0 μM)
1 | Nc1ncnc2c1c(-c1ccc(Oc3ccccc3)cc1)nn2C1CCN(CCCCOCCCCOCC(=O)Nc2cccc3c2C(=O)N(C2CCC(=O)NC2=O)C3=O)CC1 (stereo not drawn) [Compound 106, 2-[4-[4-[4-[4-amino-3-(4-phenoxyphenyl)pyrazolo[3,4-d]pyrimidin-1-yl]-1-piperidyl]butoxy]butoxy]-N-[2-(2,6-dioxo-3-piperidyl)-1,3-dioxo-isoindolin-4-yl]acetamide] | 90.1 | 93 | No |  |  | nearly complete degradation
2 | Nc1ncnc2c1c(-c1ccc(Oc3ccccc3)cc1)nn2C1CCN(CCCCCCOCCCCCCOCC(=O)Nc2cccc3c2C(=O)N(C2CCC(=O)NC2=O)C3=O)CC1 (stereo not drawn) [Compound 107, 2-(6-(6-(4-(4-amino-3-(4-phenoxyphenyl)-1H-pyrazolo[3,4-d]pyrimidin-1-yl)piperidin-1-yl)hexyloxy)hexyloxy)-N-(2-(2,6-dioxopiperidin-3-yl)-1,3-dioxoisoindolin-4-yl)acetamide] | 98.5 | 98 | No |  |  | 
3 | Cc1ncsc1-c1ccc(CNC(=O)[C@@H]2C[C@@H](O)CN2C(=O)[C@@H](NC(=O)COCCOCCOCCOCCN2CCC(n3nc(-c4ccc(Oc5ccccc5)cc4)c4c(N)ncnc43)CC2)C(C)(C)C)cc1 [Compound 109, (2S,4R)-1-((S)-17-(4-(4-amino-3-(4-phenoxyphenyl)-1H-pyrazolo[3,4-d]pyrimidin-1-yl)piperidin-1-yl)-2-tert-butyl-4-oxo-6,9,12,15-tetraoxa-3-azaheptadecane)-4-hydroxy-N-(4-(4-methylthiazol-5-yl)benzyl)pyrrolidine-2-carboxamide] | 278 |  | No | 73 |  | 
4 | Cc1ncsc1-c1ccc(CNC(=O)[C@@H]2C[C@@H](O)CN2C(=O)[C@@H](NC(=O)COCCOCCOCCCCCCN2CCC(n3nc(-c4ccc(Oc5ccccc5)cc4)c4c(N)ncnc43)CC2)C(C)(C)C)cc1 [Compound 110, (2S,4R)-1-((S)-19-(4-(4-amino-3-(4-phenoxyphenyl)-1H-pyrazolo[3,4-d]pyrimidin-1-yl)piperidin-1-yl)-2,2-dimethyl-5-oxo-7,10,13-trioxa-4-azanonadecanecarbonyl)-4-hydroxy-N-(4-(4-methylthiazol-5-yl)benzyl)pyrrolidine-2-carboxamide] |  |  | No |  | No Degradation | 
5 | Cc1ncsc1-c1ccc(CNC(=O)[C@@H]2C[C@@H](O)CN2C(=O)[C@@H](NC(=O)COCCCCCOCCCCCCN2CCC(n3nc(-c4ccc(Oc5ccccc5)cc4)c4c(N)ncnc43)CC2)C(C)(C)C)cc1 [Compound 111, (2S,4R)-1-((S)-2-(2-(5-(6-(4-(4-amino-3-(4-phenoxyphenyl)-1H-pyrazolo[3,4-d]pyrimidin-1-yl)piperidin-1-yl)hexyloxy)pentyloxy)acetamido)-3,3-dimethylbutanoyl)-4-hydroxy-N-(4-(4-methylthiazol-5-yl)benzyl)pyrrolidine-2-carboxamide] | 144 | 45 | No |  |  | 
6 | Cc1ncsc1-c1ccc(CNC(=O)[C@@H]2C[C@@H](O)CN2C(=O)[C@@H](NC(=O)CCCCCOCCOCCOCCCCCCN2CCC(n3nc(-c4ccc(Oc5ccccc5)cc4)c4c(N)ncnc43)CC2)C(C)(C)C)cc1 [Compound 116, (2S,4R)-1-((S)-23-(4-(4-amino-3-(4-phenoxyphenyl)-1H-pyrazolo[3,4-d]pyrimidin-1-yl)piperidin-1-yl)-2,2-dimethyl-5-oxo-11,14,17-trioxa-4-azatricosanecarbonyl)-4-hydroxy-N-(4-(4-methylthiazol-5-yl)benzyl)pyrrolidine-2-carboxamide] |  |  | No |  | No Degradation | 

Now from value to compound, other results behind:

Row | DC50 (BTK; read-out: DC50) [nM] | Max (BTK; at 1.0 μM) [%] | HER3 Degradation (HER3) | Max (BTK; at 2.5 μM) [%] | DC50 (BTK) | Compound | degradation of BTK at 1.0 μM (BTK; 1.0 μM)
7 |  |  | No |  | No Degradation | Cc1ncsc1-c1ccc(CNC(=O)[C@@H]2C[C@@H](O)CN2C(=O)[C@@H](NC(=O)CCCCCOCCOCCCCCCN2CCC(n3nc(-c4ccc(Oc5ccccc5)cc4)c4c(N)ncnc43)CC2)C(C)(C)C)cc1 [Compound 112, (2S,4R)-1-((S)-2-(6-(2-(6-(4-(4-amino-3-(4-phenoxyphenyl)-1H-pyrazolo[3,4-d]pyrimidin-1-yl)piperidin-1-yl)hexyloxy)ethoxy)hexanamido)-3,3-dimethylbutanoyl)-4-hydroxy-N-(4-(4-methylthiazol-5-yl)benzyl)pyrrolidine-2-carboxamide] | 
8 | 124 | 60 | No |  |  | Cc1ncsc1-c1ccc(CNC(=O)[C@@H]2C[C@@H](O)CN2C(=O)[C@@H](NC(=O)COCCOCCOCCOCCCCN2CCC(n3nc(-c4ccc(Oc5ccccc5)cc4)c4c(N)ncnc43)CC2)C(C)(C)C)cc1 [Compound 113, (2S,4R)-1-((S)-19-(4-(4-amino-3-(4-phenoxyphenyl)-1H-pyrazolo[3,4-d]pyrimidin-1-yl)piperidin-1-yl)-2-tert-butyl-4-oxo-6,9,12,15-tetraoxa-3-azanonadecane)-4-hydroxy-N-(4-(4-methylthiazol-5-yl)benzyl)pyrrolidine-2-carboxamide] | 
9 | 248 | 30 | No |  |  | Cc1ncsc1-c1ccc(CNC(=O)[C@@H]2C[C@@H](O)CN2C(=O)[C@@H](NC(=O)COCCOCCOCCOCCN2CCN(C3CCC(n4nc(-c5ccc(Oc6ccccc6)cc5)c5c(N)ncnc54)CC3)CC2)C(C)(C)C)cc1 (stereo partly drawn) [Compound 114, (2S,4R)-1-((S)-17-(4-(4-(4-amino-3-(4-phenoxyphenyl)-1H-pyrazolo[3,4-d]pyrimidin-1-yl)cyclohexyl)piperazin-1-yl)-2-tert-butyl-4-oxo-6,9,12,15-tetraoxa-3-azaheptadecane)-4-hydroxy-N-(4-(4-methylthiazol-5-yl)benzyl)pyrrolidine-2-carboxamide] | 
10 | 231 | 32 | No |  |  | Cc1ncsc1-c1ccc(CNC(=O)[C@@H]2C[C@@H](O)CN2C(=O)[C@@H](NC(=O)COCCOCCOCCOCCCCCCN2CCC(n3nc(-c4ccc(Oc5ccccc5)cc4)c4c(N)ncnc43)CC2)C(C)(C)C)cc1 [Compound 115, (2S,4R)-1-((S)-22-(4-(4-amino-3-(4-phenoxyphenyl)-1H-pyrazolo[3,4-d]pyrimidin-1-yl)piperidin-1-yl)-2,2-dimethyl-5-oxo-7,10,13,16-tetraoxa-4-azadocosanecarbonyl)-4-hydroxy-N-(4-(4-methylthiazol-5-yl)benzyl)pyrrolidine-2-carboxamide] | 
11 |  |  | No |  | No Degradation | Cc1ncsc1-c1ccc(CNC(=O)[C@@H]2C[C@@H](O)CN2C(=O)[C@@H](NC(=O)CCCCCOCCCCCOCCCCCCN2CCC(n3nc(-c4ccc(Oc5ccccc5)cc4)c4c(N)ncnc43)CC2)C(C)(C)C)cc1 [Compound 117, (2S,4R)-1-((S)-2-(6-(5-(6-(4-(4-amino-3-(4-phenoxyphenyl)-1H-pyrazolo[3,4-d]pyrimidin-1-yl)piperidin-1-yl)hexyloxy)pentyloxy)hexanamido)-3,3-dimethylbutanoyl)-4-hydroxy-N-(4-(4-methylthiazol-5-yl)benzyl)pyrrolidine-2-carboxamide] | 
